What all share (assay type): biochemical
Assay [1] concerns Oxford sialidase. Nature of the assay: Turner luminometer assay, incubation with Oxford sialidase at pH 5.5, then AMP pH 10 injection (Experiments 1-3). The method, then: Next, 0.2 units of Oxford Enzyme were diluted with 400 microliters of […]. 200 microliters of the enzyme (0.1 units) were then treated with 10 microliters of the dioxetane stock and incubated at 37° C. for 15 minutes. The solution was then placed in a Turner luminometer. Light was detected at a constant 80 RLU at a pH of 5.5. All Turner readings were calibrated to 31.5° C.
5 microliters of the dioxetane stock prepared in Experiment 1 was added to 0.05 units of Oxford sialidase in 200 microliters of the pH 5.5 buffer. The solution (approximately a 110 micromolar substrate) was incubated at 37° C. for 15 minutes. The solution was then placed in a Turner luminometer, and steady light emission at about 55 RLU was noted (see FIG. 6). Next, 400 microliters of AMP pH 10 buffer was injected to produce an off-scale light spike (i.e., greater than 10,000 RLU).
Experiment 2 was repeated with a 110 micromolar substrate in the presence of 0.025 units of the enzyme. FIG. 7 illustrates that at a pH of 5.5, the light level obtained (56 RLU) was similar to that obtained in Experiment 2. […] Next, an additional 400 microliters of the AMP pH 10 buffer was added, which produced a light peak at 8860 RLU and similar decay kinetics as in Experiment 2.

The subject of assay [2] is Oxford sialidase. Kind of assay: One step chemiluminescence at pH 7.7 after adding Oxford sialidase (Experiment 6). To be noted: pH 7.7, 0.25 units sialidase. As for the experimental part:
After incubation, 0.25 units of Oxford sialidase in 50 microliters of 50 micromolar acetate buffer was added. Chemiluminescence was spontaneously produced, rising to a maximum of 1380 RLU at 3.25 minutes (see FIG. 10).

Assay [3] has as its system sialidase. The text has this:
FIG. 12A is a graph showing chemiluminescence (RLU) as a function of sialidase dilution using a methylumbelliferyl-N-acetylneuraminic acid salt fluorescent substrate in a 0.05 M sodium acetate/0.1M NaCl buffer.
FIG. 12B is a graph showing signal to noise ratio (S/N) as a function of sialidase dilution for a methylumbelliferyl-N-acetylneuraminic acid salt fluorescent substrate in a 0.05 M sodium acetate/0.1M NaCl buffer.
The results and conditions are summarized in Table B and depicted graphically in FIGS. 12A and 12B.

For assay [4], the system named is sialidase. The source holds these as a separate data set.

Read-outs that look alike come from different tables or passages of the source.

For `COC1(c2ccc(Cl)c(O[C@]3(C(=O)[O-])C[C@H](O)[C@@H](NC(C)=O)[C@H]([C@H](O)[C@H](O)CO)O3)c2)OOC12C1CC3CC2CC(Cl)(C3)C1.[Na+]` (stereo partly drawn) [dioxetane 489-102], the “light peak after AMP pH 10 buffer” value in the assay on Oxford sialidase [1] (0.025 units enzyme) came out at 8860 RLU. Also, the “light level at pH 5.5” value in the assay on Oxford sialidase [1] (0.025 units enzyme, 110 micromolar substrate) was 56 RLU. Moreover, in the assay on Oxford sialidase [1] (0.05 units sialidase), the “light emission relative to no enzyme noise at pH 5.5” value was “about 275 times” and the “light spike after AMP pH 10 buffer” value was “greater than 10,000 RLU”. In addition, in the assay with Oxford sialidase [1] (0.05 units sialidase, approximately 110 micromolar substrate, 37° C. 15 minutes), the “steady light emission at pH 5.5” value is recorded as “about 55 RLU”. The “correlation of light emission at pH 5.5 with enzyme concentration” value in the assay on Oxford sialidase [1] (0.05 versus 0.025 units) is “did not correlate with enzyme concentration”. For the same compound, the “peak light emission after 0.1 AMP pH 10 injection” value in the assay on Oxford sialidase [1] (0.1 units enzyme) is listed as “greater than 10,000 RLU”. The “light detected at pH 5.5” value in the assay on Oxford sialidase [1] (0.1 units enzyme, 10 microliters stock, 37° C. 15 minutes) is 80 RLU. Also, the “substrate consumption during the incubation time” value in the assay with Oxford sialidase [1] (0.1 units enzyme, 37° C. 15 minutes) is “near complete substrate consumption”. The “time of maximum chemiluminescence” value in the assay with Oxford sialidase [2] amounted to 3.25 min. Besides, the maximum chemiluminescence in the assay with Oxford sialidase [2] (31.5° C.) came out at 1380 RLU.
Regarding “Methylumbelliferyl-N-acetylneuraminic acid salt”, the RLU in the assay on sialidase [3] came to 75078 RLU; in the assay on sialidase [3] (dilution 1000), 4209078 RLU; with sialidase [3] (dilution 5000), 1171002 RLU; in the assay with sialidase [3] (dilution 25000) it was 263218 RLU; in the assay on sialidase [3] (dilution 625000), 32200 RLU; in the assay with sialidase [3] (dilution 3125000), 27538 RLU. For the same compound, in the assay on sialidase [3] (dilution 15625000), the RLU was found to be 28231 RLU. Besides, the S/N with sialidase [3] is 2.74; in the assay on sialidase [3] (dilution 1000) it was 153.62; in the assay on sialidase [3] (dilution 5000) it was 42.74; with sialidase [3] (dilution 25000) it was 9.61; with sialidase [3] (dilution 625000), 1.18; with sialidase [3] (dilution 3125000), 1.01. This compound also returned a S/N in the assay on sialidase [3] (dilution 15625000) of 0.96. Besides, the “sensitivity compared with neuraminidase-Star substrate” value with sialidase [4] is “inferior sensitivity”. The signal-to-noise ratio with sialidase [4] (dilution of 1:40,000) is reported as 1.79.
